US11465972B2, “Inhibitors of oxidized low-density lipoprotein receptor 1 and methods of use thereof” (United States Government as represented by the Department …, priority 2015, dated 2022)
“And” between values parts separate entries of the source, which are not always exact repeats. Equal values may be shown once.

Target: human LOX-1 (Homo sapiens, UniProt P78380)
Test: Dil-ox-LDL uptake in CHO cells overexpressing human LOX-1
Type: cell-based
Details: 0, 20, 200, 2000 nM, read-out: IC50, inhibition of Dil-ox-LDL uptake
Experimental: FIG. 3A, FIG. 3B, FIG. 3C and FIG. 3D depict the inhibitory effect of the lead compounds on Dil-ox-LDL uptake by HUVECs and CHO cells (measured by flow cytometry) and the effect of the lead compounds on ox-LDL-induced LOX-1 mRNA and protein expression. (FIG. 3A) (Upper Panel) Flow cytometry measurements using HUVECs in the presence of the five lead compounds (Mol-1-Mol-5), each a at 200 nM concentration. (Lower Panel) The percentage of internalized ox-LDL. Graphs show data as mean (±SD); n=4. *P<0.01 or <0.05 vs. control. (FIG. 3B) IC50 value for Mol-5. IC50 value (in nM) is based on inhibition of Dil-ox-LDL uptake in CHO cells overexpressing human LOX-1. Graphs show data as mean (±SD); n=5. *P<0.01 or <0.05 vs. control. (FIG. 3C) Western blotting assay showing LOX-1 protein expression in HUVECs following incubation with 200 nM Mol-1 to Mol-5 for 30 min, and subsequently exposure to 5 μg/mL ox-LDL for 6 hours. […]
For further characterization, human endothelial cells and fluorescently-labeled Dil-ox-LDL were used for measuring initiation of atherogenic process based on interaction of vascular wall with ox-LDL. Ox-LDL uptake by human umbilical vein endothelial cells (HUVECs) was measured after exposure to 200 nM of each compound using flow cytometry. […] The dose response to modulation of ox-LDL uptake by Mol-5 (0, 20, 200 and 2000 nM) was also measured in CHO cells overexpressing human LOX-1. […]

Cc1cc(C)n(CC(O)COc2ccccc2)n1 (stereo not shown) [Mol-5, 1-(3,5-dimethyl-1H-pyrazol-1-yl)-3-phenoxypropan-2-ol]
IC50: ~200 nM and 200 nM
